The text below walks through data of publication PMC6102577, “Discovery of Pyrazolo[4,3-c]quinolines Derivatives as Potential Anti-Inflammatory Agents through Inhibiting of NO Production” (Molecules : A Journal of Synthetic Chemistry and Natural …, 2018).

Data set [1] concerns LPS-stimulated NO production in RAW 264.7 cells. Kind of data set: Inhibition of LPS-induced NO production (nitrite accumulation, Griess reaction) in RAW 264.7 cells. It is filed as cell-based. The conditions noted are these: for inhibition at 10 µM: compound 10 μM, read-out: Percent Inhibition of NO Production at 10 μM. How it is done:
Treatment of Raw 264.7 cells with LPS (0.1 μg/mL) for 24 h induced NO production which were assessed by measuring the accumulation of nitrite, a stable metabolite of NO, in the media based on Griess reaction. […] However, compound 2a was also highly cytotoxic, in which the survival rate of RAW 264.7 cells was only 9% at a drug concentration of 10 μM. […] The position of substitution play an important role in which substitution at para-position is usually more favorable than its ortho- or meta- counterpart in the inhibitory activity on the LPS-induced NO production. […] Various substituted groups have been introduced on the para-position of the phenyl ring.
Raw 264.7 cells, purchased from Bioresource Collection and Research Center, Taiwan, were cultured in DMEM, supplemented with 5% fetal bovine serum, 100 units/mL of penicillin, 100 μg/mL of streptomycin, 2 mM L-glutamine, and 1 mM non-essential amino acids in a 10-cm plate at a density of 1 × 10^6 cells/mL, at 37 °C in a humidified atmosphere containing 5% CO2.
Nitrite was measured by adding 100 μL of the Griess reagent (1% sulfanilamide and 0.1% N-(1-naphthyl)ethylenediamine dihydrochloride in 5% phosphoric acid) to 100 μL of medium for 5 min. The optical density at 550 nm (OD550) was measured with a microplate reader. Concentrations were calculated by comparison with the OD550 of a standard solution of sodium nitrite prepared in culture medium.

Data set [2] concerns RAW 264.7 cells. Kind of data set: Cell viability (XTT method) of RAW 264.7 cells. The conditions noted are these: compound 10 μM, 24 h, means ± S.D. It is filed as cell-based. Here is the method: To evaluate whether the suppressive effect of compounds on NO production is related to cell viability, Raw 264.7 cells were treated with LPS for 24 h, and washed with 500 μL of phosphate buffer solution (PBS) before resuspended in 1 mL of culture medium. Cell viability tests were run in parallel with NO production assays with an initial cell density of 5 × 10^3 cells/well in the presence or absence of test compounds at 10 μM or 0.1% DMSO as control.

A short description of data set [3]: NO-scavenging activity (sodium nitroprusside, nitrite by Griess reaction). The conditions noted are these: SNP 2.5 mM, compound 10 μM, light, room temperature, 60 min. Here is the method:
NO-scavenging effects of pyrazolo[4,3-c]quinolines 2i and 2m were measured according to the reported method. Sodium nitroprusside (SNP) (2.5 mM) was incubated alone or in combination with tested compound (10 μM) or 1400W(10 μM) in light at room temperature for 60 min.
To understand the inhibitory effects of compounds 2i and 2m on NO production, sodium nitroprusside (SNP) was freshly prepared at […] in PBS was incubated alone or in combination with 10 µM of the different compounds. SNP is an inorganic complex where NO is found as NO^+ and light irradiation is necessary for the release of NO. Therefore, incubation mixtures were incubated in light at room temperature, and nitrite levels were determined after 60 min by Griess reaction.
Figure 1 NO-scavenging effects of 1400W, compounds 2i and 2m. SNP solution (2.5 mM) in PBS was incubated alone or with tested compound (10 μM) or 1400W (10 μM) in the presence of light at room temperature for 60 min.

The mark [4] stands for this setting: Mus musculus, RAW264.7, 24 h, RAW 264.7 cells, LPS 0.1 μg/mL 24 h, means ± S.D., read-out: IC50 (inhibition of LPS-induced NO production).
The mark [5] stands for this setting: Mus musculus, RAW264.7, test dataset, negative logarithm of IC50 values, read-out: Observed pIC50 (converted).
The mark [6] stands for this setting: Mus musculus, RAW264.7, RAW 264.7 cells, LPS 0.1 μg/mL 24 h, means ± S.D.
[7] abbreviates: Mus musculus, RAW264.7, RAW 264.7 cells, LPS 0.1 μg/mL 24 h, means ± S.D., read-out: IC50 (inhibition of LPS-induced NO production).
[8] abbreviates: Mus musculus, RAW264.7, training dataset, negative logarithm of IC50 values, read-out: Observed pIC50 (converted).

Molecules are shown by their SMILES. Where “and” joins values, the source holds several entries; their conditions need not be identical. Identical values can stand only once. Like-named read-outs stand apart in the source and are kept apart here. Where only a bound is given, the exact number is not on record here.

`CC(=O)c1cccc(Nc2nc3ccccc3c3[nH]nc(N)c23)c1` [Compound 2f, 3-Amino-4-(3-acetylphenylamino)-1H-pyrazolo[4,3-c]quinoline] returned a melting point above 380 °C. Besides, in data set [1] (setting [4]), the IC50 is 290 ± 60 nM. In addition, in data set [1] (setting [5]), the IC50 is 290 nM. In addition, the inhibition at 10 µM in data set [1] (setting [6]) was 99.1 ± 2.16%. Besides, the “Cell Survival Rate at 10 μM” value in data set [2] is 94.37 ± 0.36%.
Turning to `Nc1n[nH]c2c1c(Nc1cccc(O)c1)nc1ccccc12` [Compound 2d], the IC50 in data set [1] (setting [4]) was 770 ± 230 nM; in data set [1] (setting [5]) it was 770 nM. Besides, in data set [1] (setting [6]), the inhibition at 10 µM was found to be 93.5 ± 7.57%. Moreover, in data set [2], the “Cell Survival Rate at 10 μM” value came to 81.70 ± 0.09%.
The like results for `COc1ccc(Nc2nc3ccccc3c3[nH]nc(N)c23)cc1` [Compound 2k] were, in that order, 480 ± 140 nM, 480 nM, 90.8 ± 11.9% and 90.57 ± 0.03%.
For the compound `COc1ccccc1Nc1nc2ccccc2c2[nH]nc(N)c12` [Compound 2c, 3-Amino-4-(2-methoxyphenylamino)-1H-pyrazolo[4,3-c]quinoline], the melting point was in the range of 210 to 211 °C. Moreover, the IC50 in data set [1] (setting [5]) is 490 nM. Further, in data set [1] (setting [6]), the inhibition at 10 µM was found to be 82.2 ± 6.49%. Besides, the IC50 in data set [1] (setting [7]) stood at 490 ± 140 nM. In data set [2], the “Cell Survival Rate at 10 μM” value was 47.31 ± 1.67%.
As to `Nc1n[nH]c2c1c(Nc1ccccc1)nc1ccccc12` [Compound 2a, 3-Amino-4-phenylamino-1H-pyrazolo[4,3-c]quinoline], the values for the IC50 in data set [1] (setting [4]) and in data set [1] (setting [8]) were 390 ± 80 nM and 390 nM, respectively. Further, in data set [1] (setting [6]), the inhibition at 10 µM worked out at 81.7 ± 0.99%. Further, in data set [2], the “Cell Survival Rate at 10 μM” value was 9% and 9.09 ± 0.24%.
As to `Nc1n[nH]c2c1c(Nc1ccc(F)cc1)nc1ccccc12` [Compound 2h], the IC50 is 410 ± 70 nM in data set [1] (setting [4]) and 410 nM in data set [1] (setting [5]). Further, in data set [1] (setting [6]), the inhibition at 10 µM was 94.8 ± 9.47%. For the same compound, the “Cell Survival Rate at 10 μM” value in data set [2] stood at 89.99 ± 0.02%.
Consider `Nc1ccc(Nc2nc3ccccc3c3[nH]nc(N)c23)cc1` [Compound 2j], for which the IC50 is 920 ± 50 nM in data set [1] (setting [4]) and 920 nM in data set [1] (setting [8]). For the same compound, in data set [1] (setting [6]), the inhibition at 10 µM was 95.1 ± 3.75%. Moreover, the “Cell Survival Rate at 10 μM” value in data set [2] is reported as 90.26 ± 0.05%.
The like results for `CC(=O)c1ccc(Nc2nc3ccccc3c3[nH]nc(N)c23)cc1` [Compound 2l] were, in that order, 290 ± 80 nM, 290 nM, 102 ± 6.49% and 87.80 ± 0.11%.
As to `Nc1n[nH]c2c1c(Nc1ccc([N+](=O)[O-])cc1)nc1ccccc12` [Compound 2p], the IC50 in data set [1] (setting [4]) is 400 ± 90 nM; in data set [1] (setting [8]) it was 400 nM. Also, the inhibition at 10 µM in data set [1] (setting [6]) was 89.11 ± 0.86%. Besides, the “Cell Survival Rate at 10 μM” value in data set [2] was determined as 90.86 ± 0.32%.
Regarding `Nc1n[nH]c2c1c(Nc1ccc(Cl)cc1)nc1ccccc12` [Compound 2g], the values for the IC50 in data set [1] (setting [4]) and in data set [1] (setting [8]) were 320 ± 50 nM and 320 nM, respectively. Further, the inhibition at 10 µM in data set [1] (setting [6]) amounted to 104 ± 6.71%. The “Cell Survival Rate at 10 μM” value in data set [2] is on record as 81.61 ± 0.14%.
Take `CSc1ccc(Nc2nc3ccccc3c3[nH]nc(N)c23)cc1` [Compound 2q, 3-Amino-4-(4-methylthiophenylamino)-1H-pyrazolo[4,3-c]quinoline]: the melting point was 269 to 271 °C. Also, the IC50 in data set [1] (setting [4]) was 360 ± 80 nM. The IC50 in data set [1] (setting [8]) was 360 nM. For the same compound, in data set [1] (setting [6]), the inhibition at 10 µM was 102 ± 7.01%. Besides, in data set [2], the “Cell Survival Rate at 10 μM” value was 89.62 ± 0.05%.
In the case of `Cc1ccc(Nc2nc3ccccc3c3[nH]nc(N)c23)cc1` [Compound 2o], the figures for the IC50 in data set [1] (setting [4]) and in data set [1] (setting [8]) were 470 ± 70 nM and 470 nM, respectively. The inhibition at 10 µM in data set [1] (setting [6]) was found to be 100 ± 3.02%. In data set [2], the “Cell Survival Rate at 10 μM” value amounted to 84.53 ± 0.04%.
Turning to `Nc1n[nH]c2c1c(Nc1ccc(C(F)(F)F)cc1)nc1ccccc12` [Compound 2n], the IC50 in data set [1] (setting [4]) was 360 ± 90 nM; in data set [1] (setting [8]) it was 360 nM. Moreover, the inhibition at 10 µM in data set [1] (setting [6]) was determined as 107 ± 2.48%. In addition, the “Cell Survival Rate at 10 μM” value in data set [2] is recorded as 69.14 ± 0.62%.
Take `COc1cccc(Nc2nc3ccccc3c3[nH]nc(N)c23)c1` [Compound 2e, 3-Amino-4-(3-methoxyphenylamino)-1H-pyrazolo[4,3-c]quinoline]: the melting point lay within 184 to 186 °C. Further, the IC50 in data set [1] (setting [4]) stood at 770 nM. For the same compound, the IC50 in data set [1] (setting [5]) is 720 nM. Besides, in data set [1] (setting [6]), the inhibition at 10 µM was determined as 101 ± 1.31%. Also, in data set [1] (RAW 264.7 cells, LPS 0.1 μg/mL 24 h, means ± S.D., read-out: IC50 (inhibition of LPS-induced NO production)), the IC50 was 720 ± 180 nM. The “Cell Survival Rate at 10 μM” value in data set [2] is 94.32 ± 0.49%.
As for `COc1cc(Nc2nc3ccccc3c3[nH]nc(N)c23)cc(OC)c1OC` [Compound 2r, 3-Amino-4-(3,4,5-trimethoxyphenylamino)-1H-pyrazolo[4,3-c]quinoline], the melting point lay within 161 to 162 °C. Also, the IC50 in data set [1] (setting [4]) stood at 350 ± 60 nM. For the same compound, the IC50 in data set [1] (setting [8]) is 350 nM. Also, in data set [1] (setting [6]), the inhibition at 10 µM is 107 ± 2.58%. Also, the “Cell Survival Rate at 10 μM” value in data set [2] stood at 85.24 ± 0.04%.
Consider `Nc1n[nH]c2c1c(Nc1ccccc1O)nc1ccccc12` [Compound 2b], for which the IC50 in data set [1] (setting [4]) was 420 ± 110 nM; in data set [1] (setting [8]) it was 420 nM. For the same compound, the inhibition at 10 µM in data set [1] (setting [6]) turned out to be 103 ± 6.55%. Further, the “Cell Survival Rate at 10 μM” value in data set [2] turned out to be 53.48 ± 1.53%.
Take `CC(=N)NCc1cccc(CN)c1.Cl.Cl` [Compound 1400w, N-[[3-(Aminomethyl)-phenyl]methyl]-ethanimidamide dihydrochloride, reference compound]: the inhibition at 10 µM in data set [1] (setting [6]) amounted to 102 ± 2.16%. In addition, the IC50 in data set [1] (setting [7]) was 200 ± 20 nM. The “NO-scavenging effect (levels of nitrite from SNP)” value in data set [3] is given as “did not affect the levels of nitrite”. Also, the “Cell Survival Rate at 10 μM” value in data set [2] came out at 99.54 ± 2.51%.
